CCCCc1nc(Cl)c(C(=O)OCOC(=O)OC(C)C)n1Cc1ccc(-c2ccccc2-c2nn[nH]n2)cc1
solubility (mole fraction)
Conditions | 278.15 K | 283.15 K | 288.15 K | 293.15 K | 298.15 K | 303.15 K | 308.15 K | 313.15 K
in acetone | 0.00987 | 0.0112 | 0.0132 | 0.0155 | 0.019 | 0.0234 | 0.0299 | 0.0364
in acetonitrile | 0.00131 | 0.00154 | 0.00195 | 0.00247 | 0.00326 | 0.00445 | 0.00597 | 0.00816
in methanol | 0.00111 | 0.00128 | 0.00156 | 0.00209 | 0.00277 | 0.00361 | 0.00508 | 0.00772

— BigSolDB 2.1
